ChEMBL document CHEMBL5303573, “Mapping human microbiome drug metabolism by gut bacteria and their genes” (Nature, 2019)

Columns and labels:
[1] = The drug is tested on Bifidobacterium ruminantium strain: fecal isolate for biotransformation. The drug concentrations were measured before and after a 12-h incubation by liquid-chromatography-coupled mass spectrometry (LC–MS); settings: 2 µM
[2] = The drug is tested on Collinsella aerofaciens strain: ATCC25986 for biotransformation. The drug concentrations were measured before and after a 12-h incubation by liquid-chromatography-coupled mass spectrometry (LC–MS); settings: 2 µM
[3] = The drug is tested on Alistipes indistinctus strain: DSM22520 for biotransformation. The drug concentrations were measured before and after a 12-h incubation by liquid-chromatography-coupled mass spectrometry (LC–MS); settings: 2 µM
[4] = The drug is tested on Bacteroides caccae strain: ATCC43185 for biotransformation. The drug concentrations were measured before and after a 12-h incubation by liquid-chromatography-coupled mass spectrometry (LC–MS); settings: 2 µM
[5] = The drug is tested on Bacteroides coprophilus strain: DSM18228 for biotransformation. The drug concentrations were measured before and after a 12-h incubation by liquid-chromatography-coupled mass spectrometry (LC–MS); settings: 2 µM
[6] = The drug is tested on Bacteroides finegoldii strain: DSM17565 for biotransformation. The drug concentrations were measured before and after a 12-h incubation by liquid-chromatography-coupled mass spectrometry (LC–MS); settings: 2 µM
[7] = The drug is tested on Bacteroides ovatus strain: ATCC8483 for biotransformation. The drug concentrations were measured before and after a 12-h incubation by liquid-chromatography-coupled mass spectrometry (LC–MS); settings: 2 µM
[8] = The drug is tested on Bacteroides uniformis strain: ATCC8492 for biotransformation. The drug concentrations were measured before and after a 12-h incubation by liquid-chromatography-coupled mass spectrometry (LC–MS); settings: 2 µM
[9] = The drug is tested on Odoribacter splanchnicus strain: fecal isolate for biotransformation. The drug concentrations were measured before and after a 12-h incubation by liquid-chromatography-coupled mass spectrometry (LC–MS); settings: 2 µM
[10] = The drug is tested on Parabacteroides merdae strain: ATCC43184 for biotransformation. The drug concentrations were measured before and after a 12-h incubation by liquid-chromatography-coupled mass spectrometry (LC–MS); settings: 2 µM
[11] = The drug is tested on Anaerotruncus colihominis strain: DSM17241 for biotransformation. The drug concentrations were measured before and after a 12-h incubation by liquid-chromatography-coupled mass spectrometry (LC–MS); settings: 2 µM
[12] = The drug is tested on Clostridium asparagiforme strain: DSM15981 for biotransformation. The drug concentrations were measured before and after a 12-h incubation by liquid-chromatography-coupled mass spectrometry (LC–MS); type: ADME; parameters: dose 2 uM, timepoint 0 vs 12 hours; settings: enterocloster asparagiformis, 2 µM
[13] = The drug is tested on Coprococcus comes strain: ATCC27758 for biotransformation. The drug concentrations were measured before and after a 12-h incubation by liquid-chromatography-coupled mass spectrometry (LC–MS); type: ADME; parameters: dose 2 uM, timepoint 0 vs 12 hours; settings: 2 µM
[14] = The drug is tested on Dorea formicigenerans strain: ATCC27755 for biotransformation. The drug concentrations were measured before and after a 12-h incubation by liquid-chromatography-coupled mass spectrometry (LC–MS); settings: 2 µM
[15] = The drug is tested on Enterococcus faecalis strain: V583 for biotransformation. The drug concentrations were measured before and after a 12-h incubation by liquid-chromatography-coupled mass spectrometry (LC–MS); settings: 2 µM
[16] = The drug is tested on Ruminococcus torques strain: ATCC27756 for biotransformation. The drug concentrations were measured before and after a 12-h incubation by liquid-chromatography-coupled mass spectrometry (LC–MS); type: ADME; parameters: dose 2 uM, timepoint 0 vs 12 hours; settings: 2 µM
[17] = The drug is tested on Enterobacter cancerogenus strain: ATCC35316 for biotransformation. The drug concentrations were measured before and after a 12-h incubation by liquid-chromatography-coupled mass spectrometry (LC–MS); settings: 2 µM
[18] = bacteroides thetaiotaomicron, 12 h, 2 µM
Description: The drug is tested on Bacteroides thetaiotaomicron strain: 7330 for biotransformation. The drug concentrations were measured before and after a 12-h incubation by liquid-chromatography-coupled mass spectrometry (LC–MS)

[19] = limosilactobacillus reuteri cf48-3a, 12 h, 2 µM
Description: The drug is tested on Lactobacillus reuteri CF48-3A strain: BEI HM-102 for biotransformation. The drug concentrations were measured before and after a 12-h incubation by liquid-chromatography-coupled mass spectrometry (LC–MS)

[20] = The drug is tested on Clostridium sporogenes strain: ATCC15579 for biotransformation. The drug concentrations were measured before and after a 12-h incubation by liquid-chromatography-coupled mass spectrometry (LC–MS); settings: 2 µM

Row | Compound | Bacterial Biotransformation [1] | Bacterial Biotransformation [2] | Bacterial Biotransformation [3] | Bacterial Biotransformation [4] | Bacterial Biotransformation [5] | Bacterial Biotransformation [6] | Bacterial Biotransformation [7] | Bacterial Biotransformation [8] | Bacterial Biotransformation [9] | Bacterial Biotransformation [10] | Bacterial Biotransformation [11] | Bacterial Biotransformation [12] | Bacterial Biotransformation [13] | Bacterial Biotransformation [14] | Bacterial Biotransformation [15] | Bacterial Biotransformation [16] | Bacterial Biotransformation [17] | Bacterial Biotransformation [18] | Bacterial Biotransformation [19] | Bacterial Biotransformation [20]
1 | COc1ccccc1OCC(O)CN1CCN(CC(=O)Nc2c(C)cccc2C)CC1 (stereo not given) [RANOLAZINE] | Compound NOT metabolized | Compound NOT metabolized | Compound NOT metabolized | Compound NOT metabolized | Compound NOT metabolized | Compound NOT metabolized | Compound NOT metabolized | Compound NOT metabolized | Compound NOT metabolized | Compound NOT metabolized | Compound NOT metabolized | Compound NOT metabolized | Compound NOT metabolized | Compound NOT metabolized | Compound NOT metabolized | Compound NOT metabolized | Compound NOT metabolized | Compound NOT metabolized | Compound NOT metabolized | 
2 | CC(C)c1nc(N(C)S(C)(=O)=O)nc(-c2ccc(F)cc2)c1/C=C/[C@@H](O)C[C@@H](O)CC(=O)[O-].CC(C)c1nc(N(C)S(C)(=O)=O)nc(-c2ccc(F)cc2)c1/C=C/[C@@H](O)C[C@@H](O)CC(=O)[O-].[Ca+2] [ROSUVASTATIN CALCIUM] | Compound NOT metabolized | Compound NOT metabolized | Compound NOT metabolized |  | Compound NOT metabolized | Compound NOT metabolized |  | Compound NOT metabolized |  |  | Compound NOT metabolized | Compound NOT metabolized | Compound NOT metabolized | Compound NOT metabolized | Compound NOT metabolized | Compound NOT metabolized | Compound NOT metabolized | Compound NOT metabolized | Compound NOT metabolized | Compound NOT metabolized
3 | CN[C@H]1CC[C@@H](c2ccc(Cl)c(Cl)c2)c2ccccc21 [SERTRALINE] | Compound NOT metabolized | Compound NOT metabolized | Compound NOT metabolized | Compound NOT metabolized |  | Compound NOT metabolized | Compound NOT metabolized | Compound NOT metabolized | Compound NOT metabolized | Compound NOT metabolized | Compound NOT metabolized | Compound NOT metabolized |  | Compound NOT metabolized | Compound NOT metabolized | Compound NOT metabolized | Compound NOT metabolized | Compound NOT metabolized | Compound NOT metabolized | Compound NOT metabolized
4 | CNS(=O)(=O)Cc1ccc2[nH]cc(CCN(C)C)c2c1.O=C(O)CCC(=O)O [SUMATRIPTAN SUCCINATE] | Compound NOT metabolized | Compound NOT metabolized | Compound NOT metabolized | Compound NOT metabolized |  | Compound NOT metabolized |  |  | Compound NOT metabolized | Compound NOT metabolized | Compound NOT metabolized | Compound NOT metabolized | Compound NOT metabolized | Compound NOT metabolized | Compound NOT metabolized | Compound NOT metabolized | Compound metabolized |  | Compound NOT metabolized | Compound NOT metabolized
5 | Nc1c2c(nc3ccccc13)CCCC2 [TACRINE] | Compound NOT metabolized | Compound NOT metabolized | Compound NOT metabolized | Compound NOT metabolized |  | Compound NOT metabolized |  | Compound NOT metabolized |  |  | Compound NOT metabolized | Compound NOT metabolized | Compound NOT metabolized | Compound NOT metabolized | Compound NOT metabolized | Compound NOT metabolized | Compound NOT metabolized |  | Compound NOT metabolized | Compound NOT metabolized
6 | CCOc1ccccc1OCCN[C@H](C)Cc1ccc(OC)c(S(N)(=O)=O)c1.Cl [TAMSULOSIN HYDROCHLORIDE] | Compound NOT metabolized | Compound NOT metabolized | Compound NOT metabolized | Compound NOT metabolized | Compound NOT metabolized | Compound NOT metabolized | Compound NOT metabolized | Compound NOT metabolized | Compound NOT metabolized | Compound NOT metabolized | Compound NOT metabolized | Compound NOT metabolized | Compound NOT metabolized | Compound NOT metabolized | Compound NOT metabolized | Compound NOT metabolized | Compound NOT metabolized | Compound NOT metabolized | Compound NOT metabolized | 
7 | COc1ccc(CN2CCNCC2)c(OC)c1OC.Cl.Cl [TRIMETAZIDINE DIHYDROCHLORIDE] | Compound NOT metabolized | Compound NOT metabolized | Compound NOT metabolized | Compound NOT metabolized | Compound metabolized | Compound NOT metabolized | Compound metabolized | Compound metabolized |  | Compound metabolized | Compound NOT metabolized | Compound metabolized | Compound NOT metabolized | Compound NOT metabolized | Compound NOT metabolized | Compound NOT metabolized | Compound NOT metabolized | Compound metabolized | Compound NOT metabolized | Compound NOT metabolized
8 | Cc1ccc(-c2nc3ccc(C)cn3c2CC(=O)N(C)C)cc1 [ZOLPIDEM] | Compound NOT metabolized | Compound NOT metabolized | Compound NOT metabolized | Compound NOT metabolized |  | Compound NOT metabolized |  | Compound NOT metabolized | Compound NOT metabolized | Compound NOT metabolized | Compound NOT metabolized | Compound NOT metabolized | Compound NOT metabolized | Compound NOT metabolized | Compound NOT metabolized | Compound NOT metabolized | Compound NOT metabolized | Compound NOT metabolized | Compound NOT metabolized | Compound NOT metabolized
